Measurements: patent US20240116985A1, “STAPLED PEPTIDES AND METHODS THEREOF” (priority 2020, published 2024)

Columns and labels:
[1] = target: T1, beta-catenin/TCF4 engagement (Homo sapiens, UniProt P35222); experiment: Nano-BRET target engagement assay (B-cat-Halo & TCF4-Luc in HEK293 cells); assay type: cell-based; conditions: absolute IC50; read-out: NanoBRET Abs IC50
T1 construct: expressed in transfected cells; host or cells: HEK293
T1 sequence (P35222 1-781): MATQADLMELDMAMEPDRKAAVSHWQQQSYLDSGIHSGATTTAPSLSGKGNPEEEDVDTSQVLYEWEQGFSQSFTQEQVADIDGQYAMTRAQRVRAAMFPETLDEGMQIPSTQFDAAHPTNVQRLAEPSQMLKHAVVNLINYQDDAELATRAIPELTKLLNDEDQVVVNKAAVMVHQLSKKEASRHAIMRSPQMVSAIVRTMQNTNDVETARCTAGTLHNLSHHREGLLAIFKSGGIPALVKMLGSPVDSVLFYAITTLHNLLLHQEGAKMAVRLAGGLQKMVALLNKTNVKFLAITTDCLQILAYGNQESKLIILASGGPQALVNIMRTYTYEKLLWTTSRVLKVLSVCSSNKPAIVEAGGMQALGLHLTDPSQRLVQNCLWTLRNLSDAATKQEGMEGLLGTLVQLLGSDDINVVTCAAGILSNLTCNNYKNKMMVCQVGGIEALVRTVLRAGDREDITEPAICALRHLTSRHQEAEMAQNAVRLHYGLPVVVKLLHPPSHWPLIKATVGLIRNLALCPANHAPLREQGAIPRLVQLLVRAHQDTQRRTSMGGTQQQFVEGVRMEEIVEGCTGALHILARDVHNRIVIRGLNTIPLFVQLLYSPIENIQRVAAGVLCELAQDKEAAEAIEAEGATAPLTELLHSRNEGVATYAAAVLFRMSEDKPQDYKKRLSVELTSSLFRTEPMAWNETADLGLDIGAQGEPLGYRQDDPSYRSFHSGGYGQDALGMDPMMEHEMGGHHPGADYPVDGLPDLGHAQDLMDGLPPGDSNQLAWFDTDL

[2] = target: T2, full-length beta-Catenin (Uniprot ID P35222) (Homo sapiens, UniProt P35222); experiment: Fluorescence polarization IC50 (beta-catenin / 5FAM-TCF4 10-53 competition); assay type: binding; conditions: fluorescence polarization; read-out: beta-Catenin FP IC50
T2 construct: 10 nM full-length beta-Catenin (Uniprot ID P35222)
T2 sequence (P35222 1-781): T1 sequence (P35222 1-781)

Row | Compound | IC50 [1] [nM] | IC50 [2] [nM]
1 | CC(=O)N1CCC[C@]12CC=CCCCC1(CCCC=CCCCOC(=O)N3CC[C@@](C(=O)N[C@@H](Cc4ccccc4C(F)(F)F)C(=O)N[C@@H](Cc4csc5ccccc45)C(=O)N[C@@H](CCC(=O)N4CCOCC4)C(N)=O)(C3)NC(=O)[C@H](CCC(=O)N3CCOCC3)NC(=O)[C@H](Cc3ccccc3)NC(=O)[C@H](C)NC(=O)[C@H](C)NC(=O)[C@H](Cc3cccc(C(=O)O)c3)NC(=O)[C@H](CC(=O)O)NC1=O)NC(=O)[C@H](CC(C)(C)C)NC(=O)[C@H](CC(=O)O)NC2=O (stereo partly drawn) [I-2547, Ac-PL3-Asp-Npg-B5-Asp-3COOHF-Ala-Ala-Phe-MorphGln-PyrS2-2F3MeF-BztA-MorphGln-NH2] | 3500 | 13
2 | CC(=O)NCCCC[C@@H]1NC(=O)[C@H](Cc2ccccc2)NC(=O)[C@H](C)NC(=O)[C@H](C)NC(=O)[C@H](Cc2cccc(C(=O)O)c2)NC(=O)[C@H](CC(=O)O)NC(=O)C2(CCCC=CCCCOC(=O)N3CC[C@@](C(=O)N[C@@H](Cc4ccccc4C(F)(F)F)C(=O)N[C@@H](Cc4csc5ccccc45)C(=O)N[C@@H](CCC(=O)N4CCOCC4)C(N)=O)(C3)NC1=O)CCCC=CC[C@]1(CCCN1C(C)=O)C(=O)N[C@@H](CC(=O)O)C(=O)N[C@@H](CC(C)(C)C)C(=O)N2 (stereo partly drawn) [I-2548, Ac-PL3-Asp-Npg-B5-Asp-3COOHF-Ala-Ala-Phe-AcLys-PyrS2-2F3MeF-BztA-MorphGln-NH2] | 3600 | 11
3 | CCCC[C@@H]1NC(=O)[C@H](Cc2ccccc2)NC(=O)[C@H](C)NC(=O)C(C)(C)NC(=O)[C@H](Cc2cccc(C(=O)O)c2)NC(=O)[C@H](CC(=O)O)NC(=O)C2(CCCC=CCCCOC(=O)N3CC[C@@](C(=O)N[C@@H](Cc4ccsc4)C(=O)N[C@@H](Cc4csc5ccccc45)C(=O)N[C@@H](CCC(=O)N(CCOC)CCOC)C(N)=O)(C3)NC1=O)CCCC=CC[C@]1(CCCN1C(C)=O)C(=O)N[C@@H](CC(=O)O)C(=O)N[C@@H](CC(C)(C)C)C(=O)N2 (stereo partly drawn) [I-2554, Ac-PL3-Asp-Npg-B5-Asp-3COOHF-Aib-Ala-Phe-nLeu-PyrS2-3Thi-BztA-[bismethoxyethylamine]GlnR-NH2] | 3300 | 8
4 | CC[C@@H]1NC(=O)[C@H](Cc2ccccc2)NC(=O)[C@H](C)NC(=O)C(C)(C)NC(=O)[C@H](Cc2cccc(C(=O)O)c2)NC(=O)[C@H](CC(=O)O)NC(=O)C2(CCCC=CCCCOC(=O)N3CC[C@@](C(=O)N[C@@H](Cc4ccsc4)C(=O)N[C@@H](Cc4csc5ccccc45)C(=O)N[C@@H](CCC(=O)N4CCOCC4)C(N)=O)(C3)NC1=O)CCCC=CC[C@]1(CCCN1C(C)=O)C(=O)N[C@@H](CC(=O)O)C(=O)N[C@@H](CC(C)(C)C)C(=O)N2 (stereo partly drawn) [I-2558, Ac-PL3-Asp-Npg-B5-Asp-3COOHF-Aib-Ala-Phe-Abu-PyrS2-3Thi-BztA-[Morph]GlnR-NH2] | 14700 | 7
5 | CC[C@@H]1NC(=O)[C@H](Cc2ccccc2)NC(=O)[C@H](C)NC(=O)C(C)(C)NC(=O)[C@H](Cc2cccc(C(=O)O)c2)NC(=O)[C@H](CC(=O)O)NC(=O)C2(CCCC=CCCCOC(=O)N3CC[C@@](C(=O)N[C@@H](Cc4ccsc4)C(=O)N[C@@H](Cc4csc5ccccc45)C(=O)N[C@@H](CCC(=O)N(CCOC)CCOC)C(N)=O)(C3)NC1=O)CCCC=CC[C@]1(CCCN1C(C)=O)C(=O)N[C@@H](CC(=O)O)C(=O)N[C@@H](CC(C)(C)C)C(=O)N2 (stereo partly drawn) [I-2559, Ac-PL3-Asp-Npg-B5-Asp-3COOHF-Aib-Ala-Phe-Abu-PyrS2-3Thi-BztA-[bismethoxyethylamine]GlnR-NH2] | 3800 | 8

The remaining compounds from weak to strong by IC50 [1], led by results:

Row | IC50 [1] [nM] | IC50 [2] [nM] | Compound
6 | 19600 | 29 | CCCC[C@@H]1NC(=O)[C@H](Cc2ccccc2)NC(=O)[C@H](C)NC(=O)C(C)(C)NC(=O)[C@H](Cc2cccc(C(=O)O)c2)NC(=O)[C@H](CC(=O)O)NC(=O)C2(CCCC=CCCCOC(=O)N3CC[C@@](C(=O)N[C@@H](Cc4ccsc4)C(=O)N[C@@H](Cc4csc5ccccc45)C(=O)N[C@@H](CCC(=O)N4CCC(C(F)(F)F)CC4)C(N)=O)(C3)NC1=O)CCCC=CC[C@]1(CCCN1C(C)=O)C(=O)N[C@@H](CC(=O)O)C(=O)N[C@@H](CC(C)(C)C)C(=O)N2 (stereo partly drawn) [I-2557, Ac-PL3-Asp-Npg-B5-Asp-3COOHF-Aib-Ala-Phe-nLeu-PyrS2-3Thi-BztA-4F3CPip]GlnR-NH2]
7 | 10400 | 12 | CCCC[C@@H]1NC(=O)[C@H](Cc2ccccc2)NC(=O)[C@H](C)NC(=O)C(C)(C)NC(=O)[C@H](Cc2cccc(C(=O)O)c2)NC(=O)[C@H](CC(=O)O)NC(=O)C2(CCCC=CCCCOC(=O)N3CC[C@@](C(=O)N[C@@H](Cc4ccsc4)C(=O)N[C@@H](Cc4csc5ccccc45)C(=O)N[C@@H](CCC(=O)NCC)C(N)=O)(C3)NC1=O)CCCC=CC[C@]1(CCCN1C(C)=O)C(=O)N[C@@H](CC(=O)O)C(=O)N[C@@H](CC(C)(C)C)C(=O)N2 (stereo partly drawn) [I-2552, Ac-PL3-Asp-Npg-B5-Asp-3COOHF-Aib-Ala-Phe-nLeu-PyrS2-3Thi-BztA-NHEt]GlnR-NH2]
8 | 9800 | 8 | CCCC[C@@H]1NC(=O)[C@H](Cc2ccccc2)NC(=O)[C@H](C)NC(=O)C(C)(C)NC(=O)[C@H](Cc2cccc(C(=O)O)c2)NC(=O)[C@H](CC(=O)O)NC(=O)C2(CCCC=CCCCOC(=O)N3CC[C@@](C(=O)N[C@@H](Cc4ccsc4)C(=O)N[C@@H](Cc4csc5ccccc45)C(=O)N[C@@H](CCC(=O)N(C)C)C(N)=O)(C3)NC1=O)CCCC=CC[C@]1(CCCN1C(C)=O)C(=O)N[C@@H](CC(=O)O)C(=O)N[C@@H](CC(C)(C)C)C(=O)N2 (stereo partly drawn) [I-2551, Ac-PL3-Asp-Npg-B5-Asp-3COOHF-Aib-Ala-Phe-nLeu-PyrS2-3Thi-BztA-[NMe2]GlnR-NH2]
9 | 8200 | 10 | CCCC[C@@H]1NC(=O)[C@H](Cc2ccccc2)NC(=O)[C@H](C)NC(=O)C(C)(C)NC(=O)[C@H](Cc2cccc(C(=O)O)c2)NC(=O)[C@H](CC(=O)O)NC(=O)C2(CCCC=CCCCOC(=O)N3CC[C@@](C(=O)N[C@@H](Cc4ccsc4)C(=O)N[C@@H](Cc4csc5ccccc45)C(=O)N[C@@H](CCC(=O)N4CCOCC4)C(N)=O)(C3)NC1=O)CCCC=CC[C@]1(CCCN1C(C)=O)C(=O)N[C@@H](CC(=O)O)C(=O)N[C@@H](CC(C)(C)C)C(=O)N2 (stereo partly drawn) [I-2553, Ac-PL3-Asp-Npg-B5-Asp-3COOHF-Aib-Ala-Phe-nLeu-PyrS2-3Thi-BztA-[Morph]GlnR-NH2]
10 | 7000 | 6 | CCCC[C@@H]1NC(=O)[C@H](Cc2ccccc2)NC(=O)[C@H](C)NC(=O)C(C)(C)NC(=O)[C@H](Cc2cccc(C(=O)O)c2)NC(=O)[C@H](CC(=O)O)NC(=O)C2(CCCC=CCCCOC(=O)N3CC[C@@](C(=O)N[C@@H](Cc4ccsc4)C(=O)N[C@@H](Cc4csc5ccccc45)C(=O)N[C@@H](CCC(=O)N4CCN(C(C)=O)CC4)C(N)=O)(C3)NC1=O)CCCC=CC[C@]1(CCCN1C(C)=O)C(=O)N[C@@H](CC(=O)O)C(=O)N[C@@H](CC(C)(C)C)C(=O)N2 (stereo partly drawn) [I-2556, Ac-PL3-Asp-Npg-B5-Asp-3COOHF-Aib-Ala-Phe-nLeu-PyrS2-3Thi-BztA-[AcPpz]GlnR-NH2]
11 | 2500 | 13 | CC(=O)NCCCC[C@@H]1NC(=O)[C@H](Cc2ccccc2)NC(=O)[C@H](C)NC(=O)[C@H](C)NC(=O)[C@H](Cc2cccc(C(=O)O)c2)NC(=O)[C@H](CC(=O)O)NC(=O)C2(CCCC=CCCCOC(=O)N3CC[C@@](C(=O)N[C@@H](Cc4ccccc4C(F)(F)F)C(=O)N[C@@H](Cc4csc5ccccc45)C(=O)N[C@@H](CCC(=O)N4CCOCC4)C(N)=O)(C3)NC1=O)CCCC=CC[C@]1(CCCN1C(C)=O)C(=O)N[C@@H](CC(=O)O)C(=O)N[C@@H](CC(C)(C)C)C(=O)N2 (stereo partly drawn) [I-2549, Ac-PL3-Asp-Npg-B5-Asp-3COOHF-Ala-Ala-Phe-AcLys-PyrS2-2F3MeF-BztA-MorphGln-NH2]
